# Laboratory results from ChEMBL document CHEMBL4007392, “Modulating Mineralocorticoid Receptor with Non-steroidal Antagonists. New Opportunities for the Development of Potent and Selective Ligands without Off-Target Side Effects” (J Med Chem, 2017).
# pIC50, pKi: −log10 of the molar value.
# Test system: not listed separately
# Assay: Displacement of [3H]-Aldosterone from recombinant rhesus monkey MR expressed in baculovirus infected insect cells after 3 hrs by filter-based Topcount method
# Design: species or system Macaca mulatta
row,Compound,pKi
1,COc1cc(C2C(C(=O)Oc3ccccc3)=C(C)NC(C)=C2C(=O)Oc2ccccc2)ccc1O,7.67
2,COC(=O)C1=C(C)NC(C)=C(C(=O)OC)C1c1cccc2ccccc12,7.21
3,CCSC1=C(C#N)C(c2ccccc2Cl)C(C(=O)Nc2ccccc2OC)=C(C)N1 (configuration not stated),7.28
4,Cc1cccc(Cn2ccnc2C(c2ccccc2)c2ccccc2)c1,6.87
5,CCCSC1=C(C#N)C(c2ccccc2Cl)C(C(=O)Nc2ccccc2OC)=C(C)N1 (configuration not stated),7.83
6,CC(c1ccccc1)n1ccnc1C(c1ccccc1)c1ccccc1 (configuration not stated),6.55

# Molecular target: T1, Mineralocorticoid receptor (Homo sapiens, UniProt P08235)
# T1 sequence (P08235 whole entry): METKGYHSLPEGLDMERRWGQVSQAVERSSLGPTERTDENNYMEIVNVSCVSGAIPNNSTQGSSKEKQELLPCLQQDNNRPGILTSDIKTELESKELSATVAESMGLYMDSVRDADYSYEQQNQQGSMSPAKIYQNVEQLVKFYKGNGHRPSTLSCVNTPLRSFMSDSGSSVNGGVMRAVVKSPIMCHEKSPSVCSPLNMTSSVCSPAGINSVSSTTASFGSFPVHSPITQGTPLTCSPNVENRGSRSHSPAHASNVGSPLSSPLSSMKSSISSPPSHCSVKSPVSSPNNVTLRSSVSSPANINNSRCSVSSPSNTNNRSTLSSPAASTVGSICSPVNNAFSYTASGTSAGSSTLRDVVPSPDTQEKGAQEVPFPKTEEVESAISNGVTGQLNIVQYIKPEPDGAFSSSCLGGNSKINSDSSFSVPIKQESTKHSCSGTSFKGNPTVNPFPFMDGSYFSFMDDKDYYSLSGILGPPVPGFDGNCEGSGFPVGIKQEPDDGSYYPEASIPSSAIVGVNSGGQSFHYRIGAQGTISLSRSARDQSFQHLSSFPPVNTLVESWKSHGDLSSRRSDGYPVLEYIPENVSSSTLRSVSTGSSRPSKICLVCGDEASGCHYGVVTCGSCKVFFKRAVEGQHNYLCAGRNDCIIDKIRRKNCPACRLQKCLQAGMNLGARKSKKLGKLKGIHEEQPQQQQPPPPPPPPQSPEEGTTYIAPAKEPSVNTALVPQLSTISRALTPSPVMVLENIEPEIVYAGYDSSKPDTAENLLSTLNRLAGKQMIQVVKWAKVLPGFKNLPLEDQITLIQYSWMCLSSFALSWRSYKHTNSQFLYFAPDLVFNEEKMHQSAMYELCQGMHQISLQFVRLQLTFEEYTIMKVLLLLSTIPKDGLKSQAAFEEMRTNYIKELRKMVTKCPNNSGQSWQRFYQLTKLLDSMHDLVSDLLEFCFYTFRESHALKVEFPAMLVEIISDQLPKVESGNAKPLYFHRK
# Assay: Antagonist activity at Gal4-fused human MR LBD (671 to 984 residues) expressed in African Green Monkey CV-1 cells assessed as inhibition of aldosterone-induced transactivation activity after 20 hrs by luciferase reporter gene assay
# Assay type: cell-based
row,Compound,pIC50
1,Cc1ccc(NC(=O)c2cc(C)n(-c3ccccc3C(F)(F)F)c2C)cc1Cl,> 6.30
2,"Cc1c(C(=O)Nc2ccc(S(C)(=O)=O)cc2)cc(CCO)n1-c1ccc(Cl)cc1C(F)(F)F (single isomer, unassigned; atropisomer 2)",< 6.00
3,"Cc1c(C(=O)Nc2ccc(S(C)(=O)=O)cc2)cc(CCF)n1-c1ccc(F)cc1OC(F)F (single isomer, unassigned; atropisomer 2)",< 6.00
4,"Cc1c(C(=O)Nc2ccc(S(C)(=O)=O)cc2)cn([C@H](C)[C@H](C)O)c1-c1ccc(F)cc1C(F)(F)F (single isomer, unassigned; atropisomer 2)",< 6.00
5,Cc1c(C(=O)Nc2ccc(S(C)(=O)=O)cc2)cc([C@H](C)[C@H](C)O)n1-c1ccc(F)cc1C(F)(F)F (mixture of isomers),8.21
6,"Cc1c(C(=O)Nc2ccc(S(C)(=O)=O)cc2)cc(C[C@H](C)O)n1-c1ccc(Cl)cc1-c1ccc(F)cc1 (single isomer, unassigned; atropisomer 2)",< 6.00
7,"Cc1c(C(=O)Nc2ccc(S(C)(=O)=O)cc2)cc(C[C@H](C)O)n1-c1ccc(Cl)cc1C(F)(F)F (single isomer, unassigned; atropisomer 2)",< 6.00
8,Cc1cc(C(=O)NCCc2ccccc2)c(C)n1-c1ccccc1C(F)(F)F,> 6.30

# Further lines, results first:
row,pIC50,Compound
1,> 6.30,Cc1cc(C(=O)Nc2cccc3ccccc23)c(C)n1-c1ccccc1C(F)(F)F
2,> 6.30,Cc1cc(C(=O)Nc2ccc(S(N)(=O)=O)cc2)c(C)n1-c1ccccc1C(F)(F)F
3,> 6.30,Cc1[nH]c(C(=O)Nc2ccc(S(C)(=O)=O)cc2)c(C)c1-c1ccccc1C(F)(F)F
4,8.42,Cc1c(C(=O)Nc2ccc(S(C)(=O)=O)cc2)cn([C@H](C)[C@H](C)O)c1-c1ccc(F)cc1C(F)(F)F

# Molecular target: T1, Mineralocorticoid receptor
# Assay: Antagonist activity at Gal4-fused human MR LBD (734 to 985 residues) expressed in CHO-K1 cells after 5 to 6 hrs by luciferase reporter gene assay
# Assay type: cell-based
row,pIC50,Compound
1,6.80,CC1=C(C#N)C(c2cccc3c(=O)cc(C)oc23)C(C(=O)OC(C)C)=C(C)N1 (configuration not stated)
2,7.74,COC(=O)c1c(C)nc(C)c(C(=O)CC2CCC2)c1-c1cccc2c(=O)cc(C)oc12
3,8.15,CC(=O)C1=C(C)NC(C)=C(C(=O)OC2CCC2)[C@@H]1c1cccc2c(=O)cc(C)oc12
4,7.00,CCOc1nccc2c1C(c1ccc(C#N)cc1OC)C(C#N)=C(C)N2 (configuration not stated)
5,6.51,CCc1cnc2cccc(C3C(C#N)=C(C)NC(C)=C3C(=O)OC(C)C)c2c1 (configuration not stated)
6,7.64,CC1=C(C#N)C(c2cccc3c2-c2ccccc2C3=O)C(C(=O)OC(C)C)=C(C)N1 (configuration not stated)

# Molecular target: T1, Mineralocorticoid receptor
# Assay: Displacement of [3H]-Aldosterone from MR overexpressed in human 293 cells measured after overnight incubation by TopCount method
# Assay type: cell-based
row,pKi,Compound
1,≥ 6.30,CCC(CC)(c1ccc(Cl)cc1)c1c[nH]c2c(NS(C)(=O)=O)cccc12
2,≥ 6.30,CCC(CC)(c1ccc(O)cc1)c1c[nH]c2c(NS(C)(=O)=O)cccc12
3,≥ 6.30,CCC(CC)(c1ccccc1)c1c[nH]c2c(NS(C)(=O)=O)cccc12
4,≥ 6.30,CCC(CC)(c1cc2ccccc2o1)c1c[nH]c2c(NS(C)(=O)=O)cccc12
5,≥ 6.30,CCC(CC)(c1ccc2c(c1)OCCO2)c1c[nH]c2c(NS(C)(=O)=O)cccc12
6,≥ 6.30,CCC(CC)(c1ccc2ncsc2c1)c1c[nH]c2c(NS(C)(=O)=O)cccc12

# Molecular target: T2, Mineralocorticoid receptor (Homo sapiens) (UniProt P08235)
# T2 sequence (whole entry): T1 sequence (P08235 whole entry)
# Assay: Antagonist activity at full-length human MR expressed in CHO-K1 cells assessed as inhibition of aldosterone-induced response measured after overnight incubation by luminesence analysis
# Assay type: cell-based
row,Inhibitory potency [nM],Compound
1,3,CCC(O)C(CC)(c1ccc(Br)cc1)n1ncc2c(NS(C)(=O)=O)cccc21 (configuration not stated)
2,4,CCC(c1ccc(C(F)(F)F)cc1)(C(O)C(F)F)n1ncc2c(NS(=O)(=O)CC)cccc21 (configuration not stated)
3,15,CCC(O)C(CC(F)F)(c1ccc(C(F)(F)F)cc1)n1ncc2c(NS(C)(=O)=O)cccc21 (configuration not stated)
4,11,CCC(c1ccc(C(F)(F)F)cc1)(C(O)C(F)F)n1ncc2c(NS(=O)(=O)CC)cc(F)cc21 (configuration not stated)
5,9,CCC(O)C(CC)(c1ccc(C(F)(F)F)cc1)n1ncc2c(NS(C)(=O)=O)cc(F)cc21 (configuration not stated)

# Molecular target: T3, Mineralocorticoid receptor (Rattus norvegicus, UniProt P22199)
# T3 sequence (P22199 whole entry): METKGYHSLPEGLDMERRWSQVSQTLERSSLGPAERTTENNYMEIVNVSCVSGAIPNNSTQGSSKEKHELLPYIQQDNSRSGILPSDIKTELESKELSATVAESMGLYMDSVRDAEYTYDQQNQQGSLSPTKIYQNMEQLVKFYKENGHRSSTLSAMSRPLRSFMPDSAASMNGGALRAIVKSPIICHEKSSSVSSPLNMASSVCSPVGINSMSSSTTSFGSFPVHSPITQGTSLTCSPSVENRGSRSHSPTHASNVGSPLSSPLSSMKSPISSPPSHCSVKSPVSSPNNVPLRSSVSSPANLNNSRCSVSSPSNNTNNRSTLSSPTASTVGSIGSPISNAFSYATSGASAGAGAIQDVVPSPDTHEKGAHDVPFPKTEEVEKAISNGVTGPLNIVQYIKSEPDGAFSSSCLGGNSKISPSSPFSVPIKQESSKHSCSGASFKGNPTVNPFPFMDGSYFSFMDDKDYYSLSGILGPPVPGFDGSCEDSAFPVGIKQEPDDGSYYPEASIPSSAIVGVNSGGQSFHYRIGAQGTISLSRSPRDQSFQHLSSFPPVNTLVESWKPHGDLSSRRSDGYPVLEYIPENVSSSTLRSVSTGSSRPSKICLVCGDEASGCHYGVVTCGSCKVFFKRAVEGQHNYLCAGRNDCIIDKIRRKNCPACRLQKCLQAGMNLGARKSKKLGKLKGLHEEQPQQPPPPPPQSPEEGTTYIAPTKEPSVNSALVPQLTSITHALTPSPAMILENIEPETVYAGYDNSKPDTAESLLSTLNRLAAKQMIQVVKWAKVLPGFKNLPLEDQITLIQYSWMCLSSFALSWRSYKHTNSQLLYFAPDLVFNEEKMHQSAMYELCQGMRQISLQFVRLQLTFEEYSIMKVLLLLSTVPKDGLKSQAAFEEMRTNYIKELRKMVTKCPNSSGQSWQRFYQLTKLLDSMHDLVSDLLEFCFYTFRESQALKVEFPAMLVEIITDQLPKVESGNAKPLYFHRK
# Assay: Displacement of [3H]-Aldosterone from MR in Sprague-Dawley rat kidney cytosolic fraction measured after overnight incubation by liquid scintillation counting method
row,pIC50,Compound
1,> 6.30,Cc1cc(NS(C)(=O)=O)cc2c1C(c1ccc(F)cc1)=NC(C)(C)O2
2,> 6.30,Cc1cc(Cl)ccc1C1=CC(C)(C)Oc2cc(NS(C)(=O)=O)ccc21
3,> 6.30,CC1=C(c2ccc(F)cc2)c2ccc(NS(C)(=O)=O)cc2OC1(C)C
4,> 6.30,CC1(C)N=C(c2ccc(Cl)cc2)c2ccc(NS(C)(=O)=O)cc2O1

# Molecular target: T1, Mineralocorticoid receptor
# Assay: Displacement of [3H]-Aldosterone from MR overexpressed in human 293 cells measured after 2 hrs by Microbeta scintillation counting method
# Assay type: cell-based
row,pKi,Compound
1,10.10,CN1CCN(n2/c(=N\C#N)[nH]c3cc(/C=C4\c5ccccc5COc5cc(F)ccc54)ccc32)CC1
2,≥ 8.00,C[C@@H](CN1CCOCC1)n1/c(=N/C#N)[nH]c2cc(/C=C3\c4ccccc4COc4cc(F)ccc43)ccc21
3,≥ 8.00,N#C/N=c1/[nH]c2cc(/C=C3/c4ccc(F)cc4OCc4c(F)cccc43)ccc2n1[C@@H]1C[C@@H]2COCCN2C1
4,≥ 8.00,NC(=O)/N=c1/[nH]c2cc(/C=C3\c4ccccc4COc4cc(F)ccc43)ccc2n1[C@H]1C[C@@H]2COCCN2C1
5,≥ 8.00,N#C/N=c1/[nH]c2cc(/C=C3/c4ccc(F)cc4OCc4c(F)cccc43)ccc2n1[C@H]1C[C@H]2COCCN2C1
6,≥ 8.00,C[C@H](CN1CCOCC1)n1/c(=N\C#N)[nH]c2cc(/C=C3/c4ccc(F)cc4OCc4c(F)cccc43)ccc21
7,≥ 8.00,C[C@@H](CN1CCOCC1)n1/c(=N/C#N)[nH]c2cc(/C=C3/c4ccc(F)cc4OCc4c(F)cccc43)ccc21
8,≥ 8.00,C[C@@H](CN1CCOCC1)n1/c(=N/C#N)[nH]c2cc(/C=C3\c4ccc(F)cc4COc4cc(F)ccc43)ccc21
9,≥ 8.00,CN1C[C@H](O)[C@@H](n2/c(=N/C#N)[nH]c3cc(/C=C4\c5ccccc5COc5cc(F)ccc54)ccc32)C1
10,9.48,C[C@H](CN1CCOCC1)n1/c(=N\C(N)=O)[nH]c2cc(/C=C3\c4ccccc4COc4cc(F)ccc43)ccc21 [LY2623091]
11,≥ 8.00,N#C/N=c1\[nH]c2cc(/C=C3/c4ccc(F)cc4OCc4c(F)cccc43)ccc2n1[C@@H]1C[C@H]2COCCN2C1
12,9.10,C[C@H](CN1CCOCC1)n1/c(=N\C#N)[nH]c2cc(/C=C3\c4ccc(F)cc4COc4cc(F)ccc43)ccc21
13,9.64,N#C/N=c1/[nH]c2cc(/C=C3/c4ccc(F)cc4OCc4c(F)cccc43)ccc2n1[C@H]1C[C@@H]2COCCN2C1
